We go through 10 molecules from publication PMC10135567, “New Indole-3-Propionic Acid and 5-Methoxy-Indole Carboxylic Acid Derived Hydrazone Hybrids as Multifunctional Neuroprotectors” (Antioxidants, 2023).

As usually defined, the viability is a read-out of living cells in per cent, often relative to untreated cells. Usually IC50 stands for the concentration that inhibits the measured activity by half.

Series [1] can be described thus: Fe(II)-induced deoxyribose degradation assay. Format: biochemical. To be noted: 80 µM, 2-deoxyribose 0.5 mM, 0.1 mM FeCl2; for absorbance ratio, % of the controls (deoxyribose degradation): lower = stronger antioxidant. As to the method: The lipid peroxidation assay and a modification of the deoxyribose-degradation assay were used. Two types of measurement compositions in phosphate buffer (PB–K2HPO4/KH2PO4, pH 7.4) were prepared for both tests: (i) samples, containing the biologically relevant molecules (lecithin emulsion or deoxyribose), iron, and the tested hydrazones at the concentrations indicated below the figures; and (ii) controls, in which the tested hydrazones were omitted. The data for the sample activity were presented as a percentage of the control measurement.
The deoxyribose (0.5 mM) damage was induced by adding FeCl2 (0.1 mM). The measurement compositions were incubated at 37 °C for 30 min. The next step comprised adding 0.5 mL of 2.8% trichloroacetic acid and 0.5 mL of thiobarbituric acid. Then, the samples were heated in boiling water for 20 min, and their absorbance was estimated at 532 nm (characteristic band for the generated chromophore) via Shimadzu UV-1601 UV-vis spectrophotometer.

Series [2] has as its system isolated rat-brain synaptosomes. The series can be described thus: 6-OHDA-induced neurotoxicity in isolated rat synaptosomes, synaptosomal viability. Format: cell-based. To be noted: 10 µM pre-incubation 30 min, then 150 µM 6-OHDA 1 h; for viability at 10 µM: Rattus norvegicus, read-out: synaptosomal viability (SV) preserved, as compared to 6-OHDA. As to the method:
(§1) This neurotoxicity model was based on the metabolism and auto-oxidation of 6-hydroxy dopamine responsible for the reactive oxygen species and quinones generation, ultimately leading to neurotoxicity and neurodegeneration. The experiment was performed by pre-incubation of the synaptosomes with 10 µM of the compounds for 30 min, followed by the addition of 150 µM 6-hydroxy dopamine for induction of neurotoxicity. After 1 h, they were centrifuged twice for 1 min at 15,000 × g. After the second wash, the precipitates were resolved with buffer B and glucose.

Series [3] shares this test system. In words: 6-OHDA-induced neurotoxicity in isolated rat synaptosomes, GSH level. To be noted: 10 µM pre-incubation 30 min, then 150 µM 6-OHDA 1 h. Format: cell-based. Here is the method:
as §1

Series [4] is described as follows: MTT cell viability assay (cytotoxicity), bEnd3. Format: cell-based, mouse. Particulars: mouse, bEnd3 brain endothelial cells, 1–500 µM. As to the method: Mouse-brain endothelial cell line bEnd3 [36] (CRL-2299) was purchased from the American Type Culture Collection (ATCC, Manassas, VA, USA). The cells were cultured in DMEM (Dulbeco’s modified essential medium) (cat. no. 30-2002, ATCC, Manassas, VA, USA), supplemented with 10% heat-inactivated FBS (cat. no. F7524, Sigma-Aldrich Co. LLC, St. Louis, MO, USA), 1 mM L-glutamine (cat. no. G7513, Sigma-Aldrich Co. LLC, St. Louis, MO, USA) and 1× Antibiotic-Antimycotic solution (penicillin: streptomycin: amphotericin B (100 U/mL: 0.10 mg/mL: 0.25 µg/mL) (cat. no. A5955, Sigma-Aldrich Co. LLC, St. Louis, MO, USA) at 37 °C in a humidified atmosphere containing 5% CO2. The cells were passaged in 75 cm^2 flasks every 3–5 days via trypsinization (StableCell Trypsin solution, cat. no. T2610, Sigma-Aldrich Co. LLC, St. Louis, MO, USA).
Cell viability was assessed via the mitochondrial reductase-dependent reaction of (3-(4,5-dimethylthiazol-2-yl)- 2,5-diphenyl tetrazolium bromide (MTT, cat. no. 475989, Calbiochem, Merck KGaA, Darmstadt, Germany). The SH-SY5Y and bEnd3 cell lines were seeded in 96-well plates at a density of 0.7 × 10^4 (bEnd3) or 2 × 10^4 (SH-SY5Y) cells/well and allowed to adhere for 24 h at 37 °C, 5% CO2. Then, the cells were incubated with the compounds (1–500 μM) for a preset time (24 h). For the solvent, the control cells were treated with DMSO corresponding to the highest concentration of DMSO in the samples (0.5% DMSO) in order to exclude its cytotoxic effect on the cells. For each concentration, a set of at least 6 wells were used. After incubation, the solution from each well was exchanged with fresh culture medium (100 µL/well), containing the MTT reagent (0.5 mg/mL) and incubated for 3 h at 37 °C in a humidified atmosphere and 5% CO2. The obtained formazan crystals were dissolved in 100 µL/well of 5% formic acid in propan-2-ol solution (or DMSO). The absorbance was measured at 570 nm via multiplate reader Tecan Infinite F200 PRO (Tecan Trading AG., Männedorf, Switzerland) or Synergy 2 (BioTek Instruments, Inc., Highland Park, Winooski, VT, USA).
Both the SH-SY5Y and bEnd3 cells were treated with the test compounds in a concentration range from 1 to 500 µM for 24 h.
For orientation: Tetrazolium dyes change colour on reduction, which living cells bring about.

Regarding `COc1ccc2[nH]c(C(=O)NN=Cc3ccc(O)c(OC)c3)cc2c1` [Compound 5d, N′-(4-Hydroxy-3-methoxybenzylidene)-5-methoxy-1H-indole-2-carbohydrazide], the “absorbance ratio, % of the controls (deoxyribose degradation)” value (“absorbance ratio, % of the controls” for short) in series [1] is “did not induce a modulating effect”. Also, the viability at 10 µM in series [2] worked out at 44%. For the same molecule, in series [3], the “GSH level preserved, as compared to 6-OHDA” value is on record as 40%. For the same molecule, the IC50 at 24 h in series [4] was 353 µM.
Turning to `COc1cc(C=NNC(=O)CCc2c[nH]c3ccccc23)ccc1O` [Compound 3d, N′-(4-Hydroxy-3-methoxybenzylidene)-3-(1H-indol-3-yl)propanehydrazide], the “pro-oxidant effect above the controls (deoxyribose degradation)” value in series [1] was “about 10%”. Further, in series [2], the viability at 10 µM was determined as 33%. In addition, in series [4], the IC50 at 24 h is 367 µM.
With `COc1ccc2[nH]c(C(=O)NN=Cc3cc(OC)c(O)c(OC)c3)cc2c1` [Compound 5f, N′-(4-Hydroxy-3,5-dimethoxybenzylidene)-5-methoxy-1H-indole-2-carbohydrazide], the viability at 10 µM in series [2] was 56%. Moreover, the concentration for half-maximal inhibition (IC50) at 24 h in series [4] came out at 184 µM.
In the case of “N′-(4-Hydroxy-2-methoxybenzylidene)-3-(1H-indol-3-yl)propanehydrazide [Compound 3e]”, in series [1], the “pro-oxidant effect above the controls (deoxyribose degradation)” value is “about 10%”. In addition, in series [2], the “synaptosomal viability (SV) preserved, as compared to 6-OHDA” value was determined as 33%.
`COc1ccc2[nH]c(C(=O)NN=Cc3ccc(O)c(O)c3)cc2c1` [Compound 5b, N′-(3,4-Dihydroxybenzylidene)-5-methoxy-1H-indole-2-carbohydrazide]: the viability at 10 µM in series [2] was determined as 44%. In series [4], the IC50 at 24 h stood at 158 µM.
`COc1ccc2[nH]c(C(=O)NN=Cc3ccc(O)cc3O)cc2c1` [Compound 5c, N′-(2,4-Dihydroxybenzylidene)-5-methoxy-1H-indole-2-carbohydrazide]: the “absorbance ratio, % of the controls” value in series [1] is on record as “did not induce a modulating effect”. In addition, the viability at 10 µM in series [2] was 44%. For the same molecule, the IC50 at 24 h in series [4] is greater than 500 µM.
For `COc1ccc2[nH]c(C(=O)NN=Cc3cccc(O)c3O)cc2c1` [Compound 5a, N′-(2,3-Dihydroxybenzylidene)-5-methoxy-1H-indole-2-carbohydrazide], the “absorbance ratio, % of the controls” value in series [1] was “about 50%”. Moreover, in series [2], the viability at 10 µM came to 56%. For the same molecule, the “GSH level preserved, as compared to 6-OHDA” value in series [3] was determined as 40%. The 50% inhibitory concentration (IC50) at 24 h in series [4] was 197 µM.
In the case of `COc1ccc2[nH]cc(CCNC(C)=O)c2c1` [Melatonin], the viability at 10 µM in series [2] was found to be 78%. In addition, the “GSH level preserved, as compared to 6-OHDA” value in series [3] is reported as 90%. Moreover, in series [4], the IC50 at 24 h is greater than 500 µM.
On to `COc1ccc(C=NNC(=O)c2cc3cc(OC)ccc3[nH]2)c(O)c1` [Compound 5e, N′-(2-Hydroxy-4-methoxybenzylidene)-5-methoxy-1H-indole-2-carbohydrazide], for which, in series [1], the “absorbance ratio, % of the controls” value is listed as “did not induce a modulating effect”. In series [2], the viability at 10 µM was 56%. The 50% inhibitory concentration (IC50) at 24 h in series [4] was 12.1 µM.
Regarding `COc1cc(C=NNC(=O)CCc2c[nH]c3ccccc23)cc(OC)c1O` [Compound 3f, N′-(4-Hydroxy-3,5-dimethoxybenzylidene)-3-(1H-indol-3-yl)propanehydrazide], the viability at 10 µM in series [2] worked out at 44%. In addition, the IC50 at 24 h in series [4] was greater than 500 µM.
